Experiments:
Type in all cases: cell-based, human
IL-12 p70 = test: Inhibition of production of IL-12 p70 protein; conditions: Homo sapiens; 1 μM Compound 1; 10 mM ASA; read-out: percent inhibition of production of IL-12 p70 protein
Protocol: Cells were co-transfected with the vector pCMV (BD Biosciences Clontech) in which the constitutively active CMV promoter directs β-galactosidase expression for the monitoring of transfection efficiency. Luciferase and β-galactosidase activity were determined in cell extracts prepared according to the Luciferase assay system (Promega) and Luminescent n-gal Detection system (BD Biosciences Clontech). Luciferase activity was then normalized using the β-galactosidase value. […] ELISA was performed by the following method. Human IL-12 p70 (heterodimer) was assayed using ELI-PAIR kit from Cell Sciences (Norwood, Mass.), according to the manufacturer's instructions. Human IL-12 p40 was assayed using ELISA kit from Cell Sciences (Norwood, Mass.) according to the manufacturer's instructions.
The extracts obtained from this process were used in gel-shift assays using oligonucleotides containing the NFκB target sequence corresponding to the region −121 to −102 from the transcription initiation site of IL-12 p40 or a mutated NFκB binding site. […] This interaction was specific as it was competed away by an excess of unlabeled probe, but not by a mutated oligonucleotide in which two base-pairs were substituted. […] This is expected since a compound that potently blocks NFkB have a far broader cytokine inhibitory profile than Compound 1/Compound 2.

p52 = test: Immunoblot of nuclear p52 in THP1 cells; conditions: THP1, IFNg+LPS, 100 nM, 6 h
Protocol: Rel B and p52 are two members of Rel family, which are preferentially complexed with each other. Like p50 and p65, p52 is found in virtually all cell types, whereas c-Rel and Rel B have only been detected in lymphoid tissues. To determine the effect of Compound 2 on p52 and Rel-B nuclear translocation, THP1 cells were stimulated with IFNg+LPS in either the presence or absence of 100 nM Compound 2, and the distribution of p52 and Rel-B was determined by immunoblotting of nuclear at 6 h post-treatment.
(§1) THP-1 cells were suspended in 20 volumes of buffer A containing 10 mM KCl, 10 mM HEPES (pH 7.9), 1 mM MgCl2, 1 mM dithiothreitol (DTT), 0.1% Nonidet p40 (NP-40), and 0.5 mM phenylmethylsulfonyl fluoride (PMSF) and homogenized and centrifuged at 10,000 rpm at 4 C for 5 min. Nuclear pellets were then suspended in buffer C containing 400 mM NaCl, 20 mM HEPES 9 pH 7.9), 15 mM MgCl2, 0.2 mM EDTA, 1 mM DTT, 25% glycerol, 1 mM PMSF, and 10 ug of leupeptin, 20 ug of pepstatin, and 10 ug/ml antipain, incubated for 30 min at 4 C, and centrifuged at 14,000 rpm for 20 min. The supernatants were dialyzed against buffer D containing 100 mM NaCl, 20 mM HEPES (pH 7.9), 20% glycerol, 1 mM PMSF, and 1 mM DTT.
The 10% SDS Polyacrylamide gels (Invitrogen) were transferred to Pure Nitrocellulose membrane (BioRed, Hercules, Calif.). […]

c-Rel = test: Western blot of nuclear c-Rel in THP-1 cells
From the text: (§2) In order to understand this changes, the subcellular localization of NF-κB proteins was investigated using western blot analysis.
(§3) Of the transcription factors that have been analyzed, two factors, ICSBP and c-Rel, seem to be affected by Compound 1/Compound 2 treatment. ICSBP binds indirectly to the Ets-2 site. The primary NFκB trans-activator for IL-12 is the c-Rel/p50 heterodimer. Other dimers (p65/p50 and p50/p50) either lack activity or have inhibitory functions. Thus, c-Rel plays a role in IL-12 transcription as a result of both activation through NFκB and its interaction with ICSBP. […] The membranes were blocked with 5% milk in TBST buffer and then incubated with anti-c-Rel, anti-p65, anti-p50, anti-ICSBP or anti-PU-1 antibody (all the antibodies were purchased from Santa Cruz) at a dilution of 1:500 for 1 h at room temperature or overnight at 4° C. The membranes were washed and incubated with Horseradish Peroxidase-conjugated anti-rabbit IgG or anti-mouse IgG (Amersham, England) at a dilution of 1:2000 at room temperature for 1 h.
THP-1 cells were suspended in 20 volumes of buffer A containing 10 mM KCl, 10 mM HEPES (pH 7.9), 1 mM MgCl2, 1 mM dithiothreitol (DTT), 0.1% Nonidet p40 (NP-40), and 0.5 mM phenylmethylsulfonyl fluoride (PMSF) and homogenized and centrifuged at 10,000 rpm at 4 C for 5 min. […]

p65 = test: Western blot of nuclear p65 in THP-1 cells
From the text: as §2, §3
Compound 2 impairs nuclear translocation of c-Rel and p50. We examined the nuclear translocation kinetics of NF-kB family members in LPS stimulated cells treated with Compound 2. THP1 cells were stimulated with LPS in either the presence or absence of 100 nM Compound 2, and the distribution of the NF-κB Rel family members are determined by immunoblotting nuclear (n.p.) extracts collected at 5 min, 15 min, 30 min, 1 h, 3 h and 6 h post-treatment. In response to LPS stimulation, p50 translocated into the nucleus as early as 5 minutes post-stimulation and accumulates as time goes on (FIG. 7, immunoblots and FIG. 8 densitometry). […] The experiment examining p65 nuclear translocation is shown in FIG. 9 (immunoblots) and FIG. 10 (densitometry). In LPS stimulated cells, p65 translocated into the nucleus as early as 5 minutes post-stimulation and accumulated to maximum levels at 15-30 minutes post-stimulation. Treatment of LPS-stimulated cells with Compound 2 had no effect on the kinetics of p65 nuclear entry.
as §1, with “DTT. […]” for “DTT.”

[1] = 500 nM, 3 hr, relative to untreated cells
[2] = THP1, IFN-γ plus LPS or IFN-γ plus SAC

Structure (SMILES) | inhibition at 1 µM (IL-12 p70) | nuclear p52 (FIG. 11) (p52) | amount of c-Rel protein in nuclear (c-Rel; [1]) | nuclear c-Rel level (FIG. 4) (c-Rel; [2]) | amount of p65 in nuclear (p65; [1]) | nuclear p65 protein (FIG. 4) (p65; [2]) | kinetics of p65 nuclear entry (p65; THP1, LPS, 100 nM) | level of nuclear p65 (p65; THP1, LPS, 100 nM, 6 hours, relative to untreated cells)
C(=NNc1nc(OCCc2ccccn2)nc(N2CCOCC2)n1)c1c[nH]c2ccccc12 [Compound 1, N-(1H-indol-3-ylmethylene)-N′-[4-morpholin-4-yl-6-(2-pyridin-2-yl-ethoxy)-[1,3,5]triazin-2-yl]-hydrazine] | 97% | – | – | – | – | – | – | –
Cc1cccc(C=NNc2cc(N3CCOCC3)nc(OCCc3ccccn3)n2)c1 [Compound 2, N-(3-methyl-benzylidene)-N′-[6-morpholin-4-yl-2-(2-pyridin-2-yl-ethoxy)-pyrimidin-4-yl]-hydrazine] | – | No significant difference | decreased | significantly reduced | significantly increased | increased | no effect | small increase

Reference: patent publication US9910031B2, “Compositions and methods for modulating c-Rel-dependent cytokine production” (Synta Pharmaceuticals Corporation, priority 2003, dated 2018)
